Assay results as given in ChEMBL document CHEMBL4800727 (2021).

Tests used:
Conditions in all cases: Compound concentration 10.0 uM
[1] = biological target: D(1A) dopamine receptor (Homo sapiens) (UniProt P21728)
[2] = biological target: 5-hydroxytryptamine receptor 7 (Homo sapiens, UniProt P34969)
[3] = biological target: T1, 5-hydroxytryptamine receptor 2C (Homo sapiens) (UniProt P28335)
T1 sequence (whole entry): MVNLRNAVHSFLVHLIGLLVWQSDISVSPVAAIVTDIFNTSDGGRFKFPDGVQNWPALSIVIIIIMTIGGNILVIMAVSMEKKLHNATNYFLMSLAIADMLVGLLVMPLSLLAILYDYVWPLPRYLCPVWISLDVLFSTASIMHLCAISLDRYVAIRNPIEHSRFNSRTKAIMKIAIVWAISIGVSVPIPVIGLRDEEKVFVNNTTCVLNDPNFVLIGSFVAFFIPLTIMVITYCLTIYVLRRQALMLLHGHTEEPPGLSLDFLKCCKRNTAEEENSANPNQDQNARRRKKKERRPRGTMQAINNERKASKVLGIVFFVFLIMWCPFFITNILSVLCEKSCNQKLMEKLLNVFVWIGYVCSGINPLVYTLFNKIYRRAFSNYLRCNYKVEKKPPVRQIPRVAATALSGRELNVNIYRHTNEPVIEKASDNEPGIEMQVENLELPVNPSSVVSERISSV

[4] = biological target: D(3) dopamine receptor (Homo sapiens) (UniProt P35462)
Chain of D(3) dopamine receptor (Homo sapiens) (P35462 whole entry): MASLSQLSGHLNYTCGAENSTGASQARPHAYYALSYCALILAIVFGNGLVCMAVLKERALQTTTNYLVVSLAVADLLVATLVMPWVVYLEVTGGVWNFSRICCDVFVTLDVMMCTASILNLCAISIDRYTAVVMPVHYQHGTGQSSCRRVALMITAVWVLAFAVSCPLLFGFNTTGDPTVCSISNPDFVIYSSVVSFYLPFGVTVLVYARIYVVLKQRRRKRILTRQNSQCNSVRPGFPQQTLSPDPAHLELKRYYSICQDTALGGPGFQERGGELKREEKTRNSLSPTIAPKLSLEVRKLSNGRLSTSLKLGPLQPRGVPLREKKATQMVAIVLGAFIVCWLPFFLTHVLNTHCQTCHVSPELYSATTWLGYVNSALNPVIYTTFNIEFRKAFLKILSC

[5] = biological target: 5-hydroxytryptamine receptor 2B (Homo sapiens, UniProt P41595)
Chain of 5-hydroxytryptamine receptor 2B (P41595 whole entry): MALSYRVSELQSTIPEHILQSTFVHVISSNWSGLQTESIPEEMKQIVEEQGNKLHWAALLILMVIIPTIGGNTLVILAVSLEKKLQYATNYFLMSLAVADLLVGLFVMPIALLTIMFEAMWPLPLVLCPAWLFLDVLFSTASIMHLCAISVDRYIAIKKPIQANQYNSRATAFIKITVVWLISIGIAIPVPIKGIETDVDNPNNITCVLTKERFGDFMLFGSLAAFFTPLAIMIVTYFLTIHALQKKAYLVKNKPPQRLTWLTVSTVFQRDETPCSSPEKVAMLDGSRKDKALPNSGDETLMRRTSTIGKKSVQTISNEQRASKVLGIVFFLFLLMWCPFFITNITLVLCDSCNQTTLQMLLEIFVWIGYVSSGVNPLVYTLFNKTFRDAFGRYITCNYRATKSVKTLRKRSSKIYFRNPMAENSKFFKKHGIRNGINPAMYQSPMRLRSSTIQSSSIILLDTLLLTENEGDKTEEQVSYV

[6] = biological target: Mu-type opioid receptor (Homo sapiens) (UniProt P35372)
Chain of Mu-type opioid receptor (Homo sapiens) (P35372 whole entry): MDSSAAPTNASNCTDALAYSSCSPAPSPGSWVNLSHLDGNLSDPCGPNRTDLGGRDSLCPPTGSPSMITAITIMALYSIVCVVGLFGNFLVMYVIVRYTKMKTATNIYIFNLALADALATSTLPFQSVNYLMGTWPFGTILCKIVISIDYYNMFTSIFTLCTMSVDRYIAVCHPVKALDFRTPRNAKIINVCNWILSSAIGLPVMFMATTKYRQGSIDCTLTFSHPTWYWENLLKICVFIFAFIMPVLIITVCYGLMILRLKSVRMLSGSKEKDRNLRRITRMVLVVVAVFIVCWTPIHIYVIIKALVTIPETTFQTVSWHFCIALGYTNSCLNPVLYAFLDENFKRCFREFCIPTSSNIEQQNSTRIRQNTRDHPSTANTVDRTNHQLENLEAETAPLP

[7] = biological target: 5-hydroxytryptamine receptor 1B (Homo sapiens) (UniProt P28222)
Chain of 5-hydroxytryptamine receptor 1B (Homo sapiens) (P28222 whole entry): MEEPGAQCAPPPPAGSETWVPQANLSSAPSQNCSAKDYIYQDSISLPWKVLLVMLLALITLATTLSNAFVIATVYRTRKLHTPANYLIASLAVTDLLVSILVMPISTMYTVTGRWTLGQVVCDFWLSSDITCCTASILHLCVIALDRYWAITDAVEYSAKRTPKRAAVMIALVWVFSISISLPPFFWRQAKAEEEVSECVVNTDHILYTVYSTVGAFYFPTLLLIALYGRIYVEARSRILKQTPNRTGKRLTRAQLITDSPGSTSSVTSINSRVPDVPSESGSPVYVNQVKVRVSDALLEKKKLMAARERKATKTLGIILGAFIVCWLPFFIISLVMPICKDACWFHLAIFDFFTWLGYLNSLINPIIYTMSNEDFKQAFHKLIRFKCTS

[8] = biological target: 5-hydroxytryptamine receptor 5A (Homo sapiens) (UniProt P47898)
Chain of 5-hydroxytryptamine receptor 5A (Homo sapiens) (P47898 whole entry): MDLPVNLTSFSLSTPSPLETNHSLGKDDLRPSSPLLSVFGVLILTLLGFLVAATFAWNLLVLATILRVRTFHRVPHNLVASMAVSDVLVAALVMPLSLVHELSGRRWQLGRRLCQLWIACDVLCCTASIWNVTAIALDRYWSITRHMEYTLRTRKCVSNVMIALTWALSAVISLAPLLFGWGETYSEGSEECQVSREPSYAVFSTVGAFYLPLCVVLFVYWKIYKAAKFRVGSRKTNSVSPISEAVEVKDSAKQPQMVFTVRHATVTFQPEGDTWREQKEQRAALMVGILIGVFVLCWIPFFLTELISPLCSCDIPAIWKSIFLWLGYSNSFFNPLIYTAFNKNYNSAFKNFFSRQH

[9] = biological target: 5-hydroxytryptamine receptor 1D (Homo sapiens) (UniProt P28221)
Chain of 5-hydroxytryptamine receptor 1D (Homo sapiens) (P28221 whole entry): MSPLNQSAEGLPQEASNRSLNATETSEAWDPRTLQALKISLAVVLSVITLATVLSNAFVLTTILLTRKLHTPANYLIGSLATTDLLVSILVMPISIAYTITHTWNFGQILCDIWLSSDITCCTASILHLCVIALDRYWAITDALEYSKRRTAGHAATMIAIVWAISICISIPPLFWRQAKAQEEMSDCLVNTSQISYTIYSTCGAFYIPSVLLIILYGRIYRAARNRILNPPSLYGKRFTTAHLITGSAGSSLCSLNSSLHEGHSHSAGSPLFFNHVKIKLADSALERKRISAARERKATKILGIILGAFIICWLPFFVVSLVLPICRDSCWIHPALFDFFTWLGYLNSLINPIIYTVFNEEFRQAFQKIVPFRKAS

[10] = biological target: T2, Muscarinic acetylcholine receptor M1 (Homo sapiens) (UniProt P11229)
T2 sequence (whole entry): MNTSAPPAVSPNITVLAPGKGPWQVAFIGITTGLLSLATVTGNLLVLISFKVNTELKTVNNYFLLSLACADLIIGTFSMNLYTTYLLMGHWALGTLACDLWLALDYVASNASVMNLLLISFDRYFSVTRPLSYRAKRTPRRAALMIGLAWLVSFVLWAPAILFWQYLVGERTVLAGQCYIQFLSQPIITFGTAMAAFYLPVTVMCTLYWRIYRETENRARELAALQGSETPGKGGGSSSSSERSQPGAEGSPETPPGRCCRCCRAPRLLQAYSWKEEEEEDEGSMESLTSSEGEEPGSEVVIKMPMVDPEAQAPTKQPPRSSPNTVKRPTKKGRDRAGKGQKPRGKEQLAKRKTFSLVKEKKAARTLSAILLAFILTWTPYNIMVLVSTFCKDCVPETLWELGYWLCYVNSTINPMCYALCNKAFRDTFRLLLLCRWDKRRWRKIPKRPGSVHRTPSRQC

[11] = biological target: T3, Alpha-1B adrenergic receptor (Homo sapiens) (UniProt P35368)
T3 sequence (whole entry): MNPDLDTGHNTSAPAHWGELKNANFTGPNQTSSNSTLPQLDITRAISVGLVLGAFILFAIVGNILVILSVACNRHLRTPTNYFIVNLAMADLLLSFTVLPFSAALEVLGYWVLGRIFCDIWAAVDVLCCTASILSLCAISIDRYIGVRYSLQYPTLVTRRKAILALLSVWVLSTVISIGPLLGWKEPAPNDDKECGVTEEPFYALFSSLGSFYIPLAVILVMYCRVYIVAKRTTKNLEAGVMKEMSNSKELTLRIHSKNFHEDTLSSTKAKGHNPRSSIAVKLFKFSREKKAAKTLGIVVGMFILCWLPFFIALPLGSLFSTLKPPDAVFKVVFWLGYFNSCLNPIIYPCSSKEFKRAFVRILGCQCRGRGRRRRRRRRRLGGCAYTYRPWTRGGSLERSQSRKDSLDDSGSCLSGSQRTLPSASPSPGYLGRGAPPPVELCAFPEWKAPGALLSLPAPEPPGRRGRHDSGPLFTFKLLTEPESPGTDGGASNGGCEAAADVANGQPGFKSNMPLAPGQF

[12] = biological target: Sigma intracellular receptor 2 (Homo sapiens) (UniProt Q5BJF2)
Chain of Sigma intracellular receptor 2 (Homo sapiens) (Q5BJF2 whole entry): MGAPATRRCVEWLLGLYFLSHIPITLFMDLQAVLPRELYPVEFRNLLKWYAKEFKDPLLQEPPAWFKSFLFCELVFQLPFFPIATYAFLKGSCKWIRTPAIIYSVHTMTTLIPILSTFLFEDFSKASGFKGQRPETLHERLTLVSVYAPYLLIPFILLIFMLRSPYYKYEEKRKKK

[13] = biological target: Sigma non-opioid intracellular receptor 1 (Homo sapiens) (UniProt Q99720)
Chain of Sigma non-opioid intracellular receptor 1 (Homo sapiens) (Q99720 whole entry): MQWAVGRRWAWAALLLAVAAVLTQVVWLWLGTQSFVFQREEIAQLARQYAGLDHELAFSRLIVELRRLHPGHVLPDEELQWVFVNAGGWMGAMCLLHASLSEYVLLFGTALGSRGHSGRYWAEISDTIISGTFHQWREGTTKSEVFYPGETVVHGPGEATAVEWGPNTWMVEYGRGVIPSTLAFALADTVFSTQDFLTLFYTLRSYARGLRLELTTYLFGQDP

[14] = biological target: Delta-type opioid receptor (Homo sapiens) (UniProt P41143)
Chain of Delta-type opioid receptor (Homo sapiens) (P41143 whole entry): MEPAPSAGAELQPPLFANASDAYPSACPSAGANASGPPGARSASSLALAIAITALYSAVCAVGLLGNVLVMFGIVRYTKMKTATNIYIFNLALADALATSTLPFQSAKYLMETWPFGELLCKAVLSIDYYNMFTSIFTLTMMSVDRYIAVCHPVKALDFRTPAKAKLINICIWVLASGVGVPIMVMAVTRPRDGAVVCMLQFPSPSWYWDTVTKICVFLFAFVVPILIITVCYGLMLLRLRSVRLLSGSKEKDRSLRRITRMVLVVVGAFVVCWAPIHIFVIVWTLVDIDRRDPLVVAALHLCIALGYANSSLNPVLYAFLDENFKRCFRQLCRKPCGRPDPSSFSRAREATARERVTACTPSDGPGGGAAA

[15] = biological target: Sodium-dependent dopamine transporter (Homo sapiens, UniProt Q01959)
Chain of Sodium-dependent dopamine transporter (Q01959 whole entry): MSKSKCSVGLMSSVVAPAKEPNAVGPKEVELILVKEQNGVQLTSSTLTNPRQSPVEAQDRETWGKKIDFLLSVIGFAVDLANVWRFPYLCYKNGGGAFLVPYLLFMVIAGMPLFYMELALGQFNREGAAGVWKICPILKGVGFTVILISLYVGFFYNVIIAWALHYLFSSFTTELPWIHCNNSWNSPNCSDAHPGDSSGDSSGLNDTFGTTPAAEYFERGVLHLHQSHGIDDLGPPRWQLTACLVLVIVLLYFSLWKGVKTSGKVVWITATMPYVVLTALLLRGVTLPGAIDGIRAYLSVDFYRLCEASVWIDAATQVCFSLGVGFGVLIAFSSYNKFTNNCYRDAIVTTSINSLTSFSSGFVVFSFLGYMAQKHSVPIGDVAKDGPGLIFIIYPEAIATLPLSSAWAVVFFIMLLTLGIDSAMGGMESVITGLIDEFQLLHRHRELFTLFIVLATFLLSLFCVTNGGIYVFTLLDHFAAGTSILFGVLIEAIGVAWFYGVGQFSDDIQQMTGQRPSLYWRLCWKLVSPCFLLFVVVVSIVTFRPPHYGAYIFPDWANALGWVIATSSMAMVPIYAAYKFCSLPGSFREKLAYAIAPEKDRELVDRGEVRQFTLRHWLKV

[16] = biological target: GABA-A receptor; anion channel (Rattus norvegicus) (UniProt O09028+P15431+P18506+P18508+P19969+P20236+P23574+P23576+P28471+P28473+P30191+P62813+P63079+P63138+Q91ZM7+Q9ES14)
[17] = biological target: T4, Alpha-2B adrenergic receptor (Homo sapiens) (UniProt P18089)
T4 sequence (whole entry): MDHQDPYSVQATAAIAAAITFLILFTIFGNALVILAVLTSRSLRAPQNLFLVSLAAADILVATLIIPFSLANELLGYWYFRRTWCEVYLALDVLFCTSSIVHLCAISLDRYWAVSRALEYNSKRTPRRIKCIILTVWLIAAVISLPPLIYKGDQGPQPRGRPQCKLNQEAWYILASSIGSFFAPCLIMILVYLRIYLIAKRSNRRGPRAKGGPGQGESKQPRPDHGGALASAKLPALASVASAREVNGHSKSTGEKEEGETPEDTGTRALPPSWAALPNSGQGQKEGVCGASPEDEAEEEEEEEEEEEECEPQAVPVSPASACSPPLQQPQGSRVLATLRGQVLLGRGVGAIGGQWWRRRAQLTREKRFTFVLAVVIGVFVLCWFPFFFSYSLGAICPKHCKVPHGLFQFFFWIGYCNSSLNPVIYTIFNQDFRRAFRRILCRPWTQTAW

Chain of D(1A) dopamine receptor (Homo sapiens) (P21728 whole entry): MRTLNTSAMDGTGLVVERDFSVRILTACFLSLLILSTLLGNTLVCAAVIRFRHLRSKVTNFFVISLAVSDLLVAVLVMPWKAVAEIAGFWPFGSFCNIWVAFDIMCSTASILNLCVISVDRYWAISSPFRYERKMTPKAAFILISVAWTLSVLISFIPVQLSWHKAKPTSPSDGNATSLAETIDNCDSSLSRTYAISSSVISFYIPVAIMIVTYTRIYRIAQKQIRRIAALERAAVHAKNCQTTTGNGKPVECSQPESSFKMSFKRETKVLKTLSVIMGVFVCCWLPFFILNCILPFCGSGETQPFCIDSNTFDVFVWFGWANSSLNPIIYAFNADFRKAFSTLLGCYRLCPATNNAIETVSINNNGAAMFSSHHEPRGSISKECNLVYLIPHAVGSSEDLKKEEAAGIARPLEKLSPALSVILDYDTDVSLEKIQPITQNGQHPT
Chain of 5-hydroxytryptamine receptor 7 (P34969 whole entry): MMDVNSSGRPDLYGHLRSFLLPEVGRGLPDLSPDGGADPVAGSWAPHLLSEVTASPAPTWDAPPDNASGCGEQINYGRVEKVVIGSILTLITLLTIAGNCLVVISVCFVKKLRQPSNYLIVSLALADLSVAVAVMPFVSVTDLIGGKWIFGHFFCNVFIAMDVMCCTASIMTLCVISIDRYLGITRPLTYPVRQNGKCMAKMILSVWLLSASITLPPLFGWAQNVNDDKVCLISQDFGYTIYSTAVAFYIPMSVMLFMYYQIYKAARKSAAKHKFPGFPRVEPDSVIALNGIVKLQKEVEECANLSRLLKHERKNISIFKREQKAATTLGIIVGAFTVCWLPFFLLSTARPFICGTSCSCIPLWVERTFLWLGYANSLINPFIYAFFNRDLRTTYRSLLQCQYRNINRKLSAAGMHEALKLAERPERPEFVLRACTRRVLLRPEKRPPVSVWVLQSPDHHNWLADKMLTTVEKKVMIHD

Row | SMILES | inhibition [1] | inhibition [2] | inhibition [3] | inhibition [4] | inhibition [5] | inhibition [6] | inhibition [7] | inhibition [8] | inhibition [9] | inhibition [10] | inhibition [11] | inhibition [12] | inhibition [13] | inhibition [14] | inhibition [15] | inhibition [16] | inhibition [17]
1 | COCCc1ccc(-c2c(C)nc3c(N4CCOCC4)ccnn23)cn1 [JNJ-42396302] | 2.41% | 96.1% | 68.2% | 24.1% | 52.2% | -1.51% | -0.76% | 3.93% | 11.5% | 2.83% | -8.94% | 3.07% | -2.53% | 7.84% | 9.55% | 34% | 78.2%
2 | c1ccc(C2CCN(c3cnc4c(N5CCOCC5)nccn34)CC2)cc1 | 10.6% | 20.2% | 5.92% | -6.13% | 17.7% | 19.6% | 8.68% | 19% | 1.09% | 23.7% | 0.45% | 31.6% | 44% | 2.73% | 85.9% | 22.2% | 31.4%
